No end group written: not given here.
What was measured:
Relaxivity measurements = type: physicochemical
Description: The T1 and T2 values of MT218 and Gd(HP-DO3A) solutions were determined using a 3T MRS 3000 scanner (MR Solutions, Guildford, UK). Solutions of MT218 were prepared at concentrations of 0, 0.25, 0.5, 1, and 2 mM in DPBS buffer (Gibco, Gaithersburg, MD). T1 values were measured using an inversion recovery-fast low angle shot (IR-FLASH) sequence (i=10 ms, TE=4 ms, FA=8°, echoes/frames=128, FOV=40 mm×40 mm, slice thickness =2 mm, number of averages=1, time delay=4000 ms, sample period=200, matrix=256×128). T2 values were obtained using a multi-echo multi-slice (MEMS) sequence (TE=15 ms, […], echoes=10, FOV: 40 mm×40 mm, slice thickness=1 mm, number of averages=1, matrix=256×192). The r1 and r2 relaxivities were calculated from the slopes of 1/T1 and 1/T2 vs. Gd concentration plots, respectively.

SCC4 tumors = assay: MRMI of OSCC flank xenografts, SCC4; type: in vivo, mice; details: MT218 0.04 mmol/kg
Description: Animal experiments were performed under an animal protocol approved by the Institutional Animal Care and Use Committee (IACUC) at Case Western Reserve University (CWRU, Cleveland, OH, USA). Female 4-week-old athymic nude mice purchased from the Jackson Laboratory (Bar Harbor, ME, USA) were housed in the Animal Core Facility at CWRU. Anesthetized mice were subcutaneously inoculated in the right flank with 4×10^6 GFP/luciferase-expressing OSCC cells (n=5 per cell line) in 100 μL of a 1:1 mixture of Matrigel HC (Corning) and DPBS. Tumor size was monitored with caliper measurements. After 4 weeks of growth, tumors were sufficiently large for MRI experiments.
MRI experiments were performed with a 3T MRS-3000 system (MR Solutions, Surrey, UK). […] This protocol was repeated on the same mice 2 days later using the untargeted clinical agent gadoteridol at the clinical dose of 0.10 mmol/kg.
Images were exported in DICOM format and analyzed using FIJI. Contrast-to-noise ratio (CNR) for each time point was calculated as the difference between the mean tumor intensity and the mean muscle intensity, divided by the standard deviation of noise.

[1] = test system: Capan-1 flank tumor xenografts; assay: MRMI of Capan-1 flank tumor xenografts; type: in vivo, mice
Description: (§1) For flank xenograft models, 4×10^6 Capan-1 cells suspended in 100 μL of a 6 mg/mL Matrigel (Corning, Corning, NY) solution was injected subcutaneously into the flank of eight-week-old female nu/nu mice. The tumor bearing mice were imaged after tumor volumes exceeded 300 mm^3. For orthotopic intrapancreatic models, the pancreas of four-week-old female nu/nu mice were surgically exposed and 1×10^6 BxPC3-GFP-Luc or PANC-1-GFP-Luc cells suspended in 100 μL of an Matrigel solution (6 mg/mL) was injected into the pancreatic tissue. Prior to imaging, growth of tumor was verified by bioluminescence imaging with intraperitoneal injection of d-luciferin on IVIS Spectrum system (Perkin Elmer, Waltham, MA).
Flank tumor-bearing mice were anesthetized and a tail vein catheter inserted. MR image acquisition was performed on a 7T Biospin (Bruker, Billerica, MA) preclinical small animal scanner with a volume radiofrequency coil. Axial images were obtained using a multi-spin multi-echo (MSME) MRI sequence (500 ms TR, 8.1 ms TE, 900 FA, 4.50 cm×4.50 cm FOV, 1.50 mm slice thickness, 16 slices, 2 averages, 200×200 matrix, 0.0225×0.0225 cm/pixel resolution). Contrast agents were injected at a dose of 0.1 mmol/kg (100 μL) via the tail vein catheter, followed by a saline flush. Images of the tumors were acquired before contrast and at various time points after contrast administration. Gd(HP-DO3A) was used as a control.
Image files were exported and analyzed in Horus software. ROIs were drawn in the tumor, liver, kidney, and muscle. Muscle ROIs were taken from muscle, with other structures (liver, kidney, tumor) identified after comparison with published images and comparison with anatomical landmarks or bioluminescent imaging. Size of ROIs drawn for image analysis are summarized in Supplemental Table S1. The contrast-to-noise ratio of the tumor (CNR) was calculated using the following equation, where σ_noise is the standard deviation of intensities from an ROI drawn outside of the mouse body: […]

[2] = test system: PANC-1-GFP-Luc intrapancreatic tumor xenografts; assay: MRMI of PANC-1-GFP-Luc intrapancreatic tumor xenografts; type: in vivo, mice
Description: as §1
Mice bearing intrapancreatic tumors were anesthetized and a tail vein catheter was inserted. Image acquisition was performed on a MR Solutions 3T MRS 3000 scanner with a mouse radiofrequency coil. Axial images were obtained using a Fast Spin Echo (FSE) MRI sequence (305 ms TR, 11 ms TE, 90° F.A, 4 cm×4 cm FOV, 1 mm slice thickness, 10 slices, echo train length=4, echo spacing=11 ms, 4 averages, 256×256 matrix, […] cm/pixel resolution) with respiratory gating. Images were acquired before contrast and at different time points after contrast injection at a dose of 0.1 mmol/kg (100 μL). For competitive binding experiments, a 5:1 molar ratio of free ZD2 peptide to MT218 was injected in mice bearing intrapancreatic BxPC3 tumor xenografts (n=3) at a dose of 0.1 mmol MT218/kg (100 μL). Images obtained on the MR Solutions 3T scanner were normalized using the Surscalereader.exe (MR Solutions, Guildford, UK) program supplied.
Image files were exported and analyzed in Horus software. ROIs were drawn in the tumor, liver, kidney, and muscle. […] The contrast-to-noise ratio of the tumor (CNR) was calculated using the following equation, where σ_noise is the standard deviation of intensities from an ROI drawn outside of the mouse body: […]

PC3 tumors = assay: MRMI with MT218, PC3 xenografts; type: in vivo, mice; details: 0.04 mmol Gd/kg
Excerpt: Xenograft models were established by subcutaneous flank injections in athymic nu/nu mice for the 4 prostate cancer cells and tested with MRMI using 0.04 mmol Gd/kg of MT218.

Work on “ZD2-N3-Gd(HP-DO3A) (TVRTSAD; also: conjugated to Gd(HP-DO3A) by click reaction of alkynyl-ZD2 with N3-Gd(HP-DO3A), residue of attachment not given here, Gd complex) [MT218, EDB-FN-targeted MRI contrast agent; ZD2 peptide conjugated to the clinical macrocyclic agent Gd(HP-DO3A)]” yielded a T1 relaxivity (Relaxivity measurements; at 3T (Example 1)) of 6.13 mM⁻¹ s⁻¹, a T1 relaxivity (Relaxivity measurements; at 3 T, DPBS buffer) of 6.07 ± 1.13 mM⁻¹ s⁻¹ and a T2 relaxivity (Relaxivity measurements; at 3 T, DPBS buffer) of 8.20 ± 0.18 s⁻¹ mM⁻¹. For the same substance, the “average maximum enhancement (CNR)” value (SCC4 tumors) was 3.81±0.25, the “increase of contrast to noise ratio (CNR)” value ([1]; 0.1 mmol/kg, MT218 at 15 minutes post-injection, maintained at least 35 minutes, Gd(HP-DO3A) for the duration of the experiment) was 4.84 fold and the “CNR compared to the clinical agent Gd(HP-DO3A)” value ([1]; Capan-1 flank) was 273 % CNR of control. For the same substance, the “intratumoral CNR increase” value ([2]; 0.1 mmol/kg, 10 min postinjection) was “approximately 3.85 fold”, the “CNR compared to the clinical agent Gd(HP-DO3A)” value ([2]; PANC-1-GFP-Luc intrapancreatic) was 164 % CNR of control and the “CNR of PC3 tumors relative to PC3-DR tumors” value (PC3 tumors) was 3.3 fold. The “CNR over the pre-contrast” value (PC3 tumors; PC3 tumors, 20 min post-injection) was 5 fold.
